From PubChem BioAssay (NCI)
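Grown in 96-well plates, cells were treated for 48 hours with each compound at five concentrations. Insufficient inhibition: endpoint recorded as highest concentration tested. The concentration for 50% growth inhibition is given as GI50. TGI denotes the concentration required for complete inhibition of growth.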

What was measured:
Test in all cases: NCI-60 cell line screen, 48 h
[1] = system: HCT-116 colon
[2] = system: M14 melanoma
[3] = system: MDA-MB-231 breast
[4] = system: MDA-MB-435
[5] = system: OVCAR-4 ovarian
[6] = system: SR leukemia
[7] = system: TK-10 renal
[8] = system: MCF7 breast
[9] = system: DMS 114 small cell lung
[10] = system: HOP-18 NSCLC
[11] = system: KM20L2 colon

Structure (SMILES) | TGI [1] | TGI [2] | TGI [3] | TGI [4] | TGI [5] | TGI [6] | TGI [7] | TGI [8] | GI50 [2] | GI50 [8] | GI50 [4] | GI50 [6] | GI50 [7] | TGI [9] | TGI [10] | TGI [11] | GI50 [1] | GI50 [3] | GI50 [5]
O=C1Nc2ccc(Cl)cc2/C1=C\c1c(Cl)nc2sccn12 | 34 µM | > 100 µM | > 100 µM | 3.22 µM | > 100 µM | > 100 µM | > 100 µM |  |  |  |  |  |  |  |  |  |  |  | 
COC(=O)N1CC2C3C4CC(C(c5ccccc5)=C4c4ccccc4)C3C21 (centres undefined) | 25.7 µM | 51.9 µM | 22.3 µM | 32.8 µM | 29.5 µM | 51.1 µM | 30.8 µM | 78.3 µM |  |  |  |  |  |  |  |  |  |  | 
Cc1ccc(N(CC(=O)Nc2ccc(S(=O)(=O)N3CCC(N4CCCC4)CC3)cc2)S(=O)(=O)c2ccc(Cl)cc2)cc1 |  | 3.39 µM |  | 3.14 µM |  | 0.856 µM | 3.36 µM | 3.6 µM | 1.71 µM | 1.6 µM | 1.69 µM | 0.3 µM | 1.68 µM |  |  |  |  |  | 
CC(=O)NC1=C[C@@H]([C@H]2COC(C)(C)O2)OC1=O | > 100 µM |  |  |  |  |  |  | > 100 µM |  |  |  |  |  | > 100 µM | > 100 µM | > 100 µM |  |  | 
O=C(Nc1ccc(-n2ccc3c(NC(=O)c4ccccc4)ncnc32)cc1)Nc1cccc(Cl)c1Cl | 2.38 µM | 2.11 µM | 3.05 µM | 8.64 µM | 1.91 µM | 2.92 µM | 2.34 µM | 5.81 µM | 0.973 µM | 1.12 µM | 1.53 µM | 0.659 µM | 1.01 µM |  |  |  | 0.673 µM | 1.02 µM | 0.878 µM
CCOC(=O)CC1(c2cccc3ccccc23)OC(=O)c2ccccc21 (centres undefined) |  |  |  |  | > 100 µM |  | > 100 µM |  |  |  |  |  |  | > 100 µM | > 100 µM | > 100 µM |  |  | 
C=C(OC1C(C)=C2C(C1OC(=O)CCCCCCC)C(C)(OC(C)=O)CC(OC(=O)CCC)C1(O)C2OC(=O)C1(C)O)/C(C)=C/C (centres undefined) | 0.000151 µM |  |  |  | 0.512 µM |  |  | 0.191 µM |  |  |  |  |  | 0.207 µM | 9.19 µM | 1.23 µM | < 0.0001 µM |  | < 0.0001 µM
